The values below come from US20110195929A1, “COMPOUNDS FOR THE TREATMENT OF FLAVIVIRAL INFECTIONS” (SUMMIT CORPORATION PLC, priority 2008, published 2011).

The test system of the first test is HCV. Description: Cell-based HCV infection NS3 protease FRET assay in DMSO-Huh7 cells. Note: test concentration or dose not given here. On the set-up: species or system hepatitis C virus (HCV).
Conditions: not given
Turning to `[O-][N@@+]12C[C@H](O)[C@H](O)[C@@H]1[C@@H](O)[C@H](O)[C@@H]2CO` [Compound 81, (1R,2R,3S,4R,6S,7R,7aR)-1,2,6,7-tetrahydroxy-3-(hydroxymethyl)octahydropyrrolizine 4-oxide], the Ave % inhibition entry is “++ (++: 20-39%)”.
With `CCN1C[C@H](O)[C@@H](O)[C@H](O)[C@H]1CO` [Compound 756, (2R,3R,4R,5S)-1-ethyl-2-(hydroxymethyl)piperidine-3,4,5-triol], the Ave % inhibition result is on record as “+ (+: ≦19%)”.
On the same count and under the same terms, in the case of `O=C(O)[C@H]1C[C@H](O)CN1` [Compound 477, trans-4-Hydroxy-D-proline] it was “+ (+: ≦19%)”.

The same test, now with this note: DMSO-Huh7 cells infected with HCV at 0.05 ffu/cell; HCV NS3 protein levels by FRET, day 6 p.i.
`CCCCN1C[C@@H](N=[N+]=[N-])C[C@H]1CO` [Compound 275, ((2S,4S)-4-azido-1-butylpyrrolidin-2-yl)methanol]: the Ave % inhibition entry is “++ (++: 20-39%)”.
On the same count and under the same terms, next, `C[C@@]1(C(=O)O)NC[C@H](O)[C@H]1O` [Compound 504, (2R,3S,4S)-3,4-dihydroxy-2-methylpyrrolidine-2-carboxylic acid]: “++ (++: 20-39%)”; `[N-]=[N+]=N[C@@H]1CN(CCO)[C@H](CO)[C@H]1O` [Compound 721, (2R,3R,4R)-4-azido-1-(2-hydroxyethyl)-2-(hydroxymethyl)pyrrolidin-3-ol]: “++ (++: 20-39%)”.
Same read-out and setting: next, `CCCCCCCCCN1C[C@H](O)[C@H](O)[C@@H]1[C@@H](O)[C@H](O)CO` [Compound 404, (1R,2R)-1-((2R,3R,4S)-3,4-dihydroxy-1-nonylpyrrolidin-2-yl)propane-1,2,3-triol]: “+++ (+++: 40-59%)”; `O=C(NC[C@@H]1[C@@H](O)[C@@H](O)CN1Cc1ccccc1)c1ccc(-c2ccccc2)cc1` [Compound 673, N-(((2R,3R,4S)-1-benzyl-3,4-dihydroxypyrrolidin-2-yl)methyl)biphenyl-4-carboxamide]: “++ (++: 20-39%)”; `C[C@H]1N[C@@H](CO)[C@H](O)[C@H]1O` [Compound 119, (2S,3S,4S,5R)-2-(hydroxymethyl)-5-methylpyrrolidine-3,4-diol]: “++ (++: 20-39%)”.
Still for that read-out and setting: next, `[N-]=[N+]=N[C@@H]1C[C@H](CO)N(CCCO)C1` [Compound 717, ′3-((2R,4R)-4-azido-2-(hydroxymethyl)pyrrolidin-1-yl)propan-1-ol]: “+++++ (+++++: ≧80%)”.
Take “(3R,5S)-5-(acetamidomethyl)-1-nonylpyrrolidin-3-yl acetate [Compound 547]”: the Ave % inhibition result was “++++ (++++: 60-79%)”.
With `CCCCCCCCCN1C[C@@H](O)C(NC(C)=O)[C@H](O)C1` [Compound 783, N-((3R,5R)-3,5-dihydroxy-1-nonylpiperidin-4-yl)acetamide], the Ave % inhibition entry is recorded as “+++ (+++: 40-59%)”.
For `CC(=O)N[C@@H]1CNC[C@@H](O)[C@H]1O` [Compound 563, N-((3R,4S,5R)-4,5-dihydroxypiperidin-3-yl)acetamide], the Ave % inhibition entry was “++++ (++++: 60-79%)”.
Same read-out and setting: in the case of `CC1(C)O[C@H]2[C@H](CN(CCN3CCOCC3)[C@H]2CNC(=O)C(F)(F)F)O1` [Compound 675, N-(((3aR,4S,6aS)-2,2-dimethyl-5-(2-morpholinoethyl)tetrahydro-3aH-[1,3]dioxolo[4,5-c]pyrrol-4-yl)methyl)-2,2,2-trifluoroacetamid] it was “++ (++: 20-39%)”; in that of `CCCCN1C[C@H](O)[C@H](O)[C@H]1CNC(=O)CCC` [Compound 689, N-(((2R,3R,4S)-1-butyl-3,4-dihydroxypyrrolidin-2-yl)methyl)butyramide], “+ (+: ≦19%)”; in that of `CN(C)CCN1C[C@H](O)[C@H](O)[C@@H]1CNC(=O)c1ccccc1` [Compound 667, N-(((2S,3R,4S)-1-(2-(dimethylamino)ethyl)-3,4-dihydroxypyrrolidin-2-yl)methyl)benzamide], “++ (++: 20-39%)”.
Still for that read-out and setting: next, `O[C@@H]1[C@@H]2[C@@H](O)CCCN2C[C@@H]1O` [Compound 153, (1R,2S,8S,8aS)-octahydroindolizine-1,2,8-triol]: “++ (++: 20-39%)”.
Still for that read-out and setting: in the case of `CCCC(=O)O[C@H]1CN2CC[C@H](O)C2[C@@H](O)[C@@H]1O` (stereo partly drawn) [Compound 46, (1S,6S,7S,8R)-1,7,8-trihydroxyoctahydroindolizin-6-yl butyrate] it was “++ (++: 20-39%)”; in that of `O=C(NC[C@H]1[C@@H](O)[C@@H](O)CN1CCN1CCOCC1)c1ccc(-c2ccccc2)cc1` [Compound 702, N-(((2S,3R,4S)-3,4-dihydroxy-1-(2-morpholinoethyl)pyrrolidin-2-yl)methyl)biphenyl-4-carboxamide], “++++ (++++: 60-79%)”.
As for `C[C@@H](N)CCC[C@@H]1N[C@@H](CO)[C@H](O)[C@H]1O` [Compound 561, (2S,3S,4S,5S)-2-((R)-4-aminopentyl)-5-(hydroxymethyl)pyrrolidine-3,4-diol], the Ave % inhibition entry was “++++ (++++: 60-79%)”.
On the same count and under the same terms, next, `CC(=O)OC[C@H]1[C@@H](OC(C)=O)[C@H](OC(C)=O)[C@H]2[C@@H](OC(C)=O)[C@@H](OC(C)=O)CN21` [Compound 144, (1R,2R,3S,6S,7R,7aR)-3-(acetoxymethyl)hexahydro-1H-pyrrolizine-1,2,6,7-tetrayl tetraacetate]: “++ (++: 20-39%)”; `CCCCCCCCCN1C[C@@H]2OC(C)(C)O[C@@H]2[C@@H]1CNC(C)=O` [Compound 630, N-(((3aR,4S,6aS)-2,2-dimethyl-5-nonyltetrahydro-3aH-[1,3]dioxolo[4,5-c]pyrrol-4-yl)methyl)acetamide]: “++ (++: 20-39%)”.
For `O=C(NC[C@H]1[C@@H](O)[C@@H](O)CN1CCCCCCCCCO)c1ccc(-c2ccccc2)cc1` [Compound 660, N-(((2S,3R,4S)-3,4-dihydroxy-1-(9-hydroxynonyl)pyrrolidin-2-yl)methyl)biphenyl-4-carboxamide], the Ave % inhibition result is “+++ (+++: 40-59%)”.
On the same count and under the same terms, next, `CC(=O)NC[C@@H]1[C@@H](O)[C@@H](O)CN1CCCCCCCCCO` [Compound 511, N-(((2R,3R,4S)-3,4-dihydroxy-1-(9-hydroxynonyl)pyrrolidin-2-yl)methyl)acetamide]: “++ (++: 20-39%)”; `OC[C@@H]1[C@@H](O)[C@H](O)[C@@H](CO)N1Cc1ccc(-c2ccccc2)cc1` [Compound 559, (2R,3R,4R,5R)-1-(biphenyl-4-ylmethyl)-2,5-bis(hydroxymethyl)pyrrolidine-3,4-diol]: “++++ (++++: 60-79%)”.
Still for that read-out and setting: next, `CC(=O)OC[C@H]1[C@@H](OC(C)=O)[C@H](OC(C)=O)[C@H]2[C@H](OC(C)=O)[C@@H](OC(C)=O)CN21` [Compound 136, (1R,2R,3S,6S,7S,7aR)-3-(acetoxymethyl)hexahydro-1H-pyrrolizine-1,2,6,7-tetrayl tetraacetate]: “++ (++: 20-39%)”; `CC1(C)O[C@H]([C@H]2[C@@H](O)[C@H](O)CN2Cc2ccccc2)[C@@H](CNCc2ccccc2)O1` [Compound 704, (2R,3R,4R)-1-benzyl-2-((4R,5R)-5-((benzylamino)methyl)-2,2-dimethyl-1,3-dioxolan-4-yl)pyrrolidine-3,4-diol]: “++++ (++++: 60-79%)”; `CCCCCCCCCN1C[C@@H](O)[C@H](O)[C@H](O)[C@@H](O)C1` [Compound 736, (3R,4S,5R,6S)-1-nonylazepane-3,4,5,6-tetraol]: “+++ (+++: 40-59%)”.
On the same count and under the same terms, in the case of “(1S,2S,3S,6R,7R,7aR)-1,6,7-trihydroxy-3-(hydroxymethyl)hexahydro-1H-pyrrolizin-2-yl methanesulfonate [Compound 635]” it was “++ (++: 20-39%)”.
As for `O=C(O)[C@@]1(O)CNC[C@@H](O)[C@H]1O` [Compound 87, (3R,4R,5R)-3,4,5-trihydroxypiperidine-3-carboxylic acid], the Ave % inhibition result is “+++ (+++: 40-59%)”.
In the case of `O[C@@H]1[C@H]([C@@H](O)CNCc2ccccc2)N(Cc2ccccc2)C[C@@H]1O` [Compound 700, (2S,3R,4S)-1-benzyl-2-((S)-2-(benzylamino)-1-hydroxyethyl)pyrrolidine-3,4-diol], the Ave % inhibition result was “++ (++: 20-39%)”.
As to `NC[C@H]1[C@@H](O)[C@@H](O)CN1Cc1ccc(-c2ccccc2)cc1` [Compound 686, (2S,3R,4S)-2-(aminomethyl)-1-(biphenyl-4-ylmethyl)pyrrolidine-3,4-diol], the Ave % inhibition entry is reported as “+++ (+++: 40-59%)”.
Same read-out and setting: next, `O[C@H]1[C@H](O)[C@H](O)CN(Cc2ccc(-c3ccccc3)cc2)C[C@H]1O` [Compound 762, (3R,4R,5R,6R)-1-(biphenyl-4-ylmethyl)azepane-3,4,5,6-tetraol]: “+++ (+++: 40-59%)”.
On the same count and under the same terms, next, `OC[C@H]1[C@H](O)[C@H](O)CN1Cc1ccc(-c2ccccc2)cc1` [Compound 623, (2S,3S,4R)-1-(biphenyl-4-ylmethyl)-2-(hydroxymethyl)pyrrolidine-3,4-diol]: “++ (++: 20-39%)”.
Still for that read-out and setting: next, `O=C(O)CN1C[C@H](O)[C@H](O)[C@@H]1[C@@H](O)[C@H](O)[C@H](O)CO` [Compound 530, 2-((2R,3R,4S)-3,4-dihydroxy-2-((1R,2S,3R)-1,2,3,4-tetrahydroxybutyl)pyrrolidin-1-yl)acetic acid]: “++ (++: 20-39%)”; `CCCCCCCCCN1C[C@@H](O)[C@H](O)[C@@H](NC(C)=O)C1` [Compound 780, N-((3S,4R,5R)-4,5-dihydroxy-1-nonylpiperidin-3-yl)acetamide]: “++ (++: 20-39%)”; `OC[C@@H](O)[C@H](O)[C@H]1[C@@H](O)[C@H](O)CN1Cc1ccccc1` [Compound 703, (1R,2R)-1-((2R,3R,4R)-1-benzyl-3,4-dihydroxypyrrolidin-2-yl)propane-1,2,3-triol]: “++ (++: 20-39%)”.
As for `CCCCCCCCCN1C[C@H](O)[C@@H](O)[C@H](NC(C)=O)C1` [Compound 774, N-((3R,4S,5S)-4,5-dihydroxy-1-nonylpiperidin-3-yl)acetamide], the Ave % inhibition entry is recorded as “+ (+: ≦19%)”.
On the same count and under the same terms, next, `CCCCCCCCCN1C[C@H](O)[C@H](O)[C@@H]1CNC(=O)c1ccccc1` [Compound 622, N-(((2S,3R,4S)-3,4-dihydroxy-1-nonylpyrrolidin-2-yl)methyl)benzamide]: “+++++ (+++++: ≧80%)”.
